Measurements from patent US20200115698A1, “PHARMACEUTICAL COMBINATION FOR TREATMENT OF FABRY DISEASE AND USE THEREOF” (MEIJI PHARMACEUTICAL UNIVERSITY, priority 2017, published 2020).

T1: α-NAGA mutant (SEQ ID NO:8) (Homo sapiens, UniProt P17050, A191L/S188E)
T1 sequence (P17050 with tags, fused parts or gaps S188E/A191L): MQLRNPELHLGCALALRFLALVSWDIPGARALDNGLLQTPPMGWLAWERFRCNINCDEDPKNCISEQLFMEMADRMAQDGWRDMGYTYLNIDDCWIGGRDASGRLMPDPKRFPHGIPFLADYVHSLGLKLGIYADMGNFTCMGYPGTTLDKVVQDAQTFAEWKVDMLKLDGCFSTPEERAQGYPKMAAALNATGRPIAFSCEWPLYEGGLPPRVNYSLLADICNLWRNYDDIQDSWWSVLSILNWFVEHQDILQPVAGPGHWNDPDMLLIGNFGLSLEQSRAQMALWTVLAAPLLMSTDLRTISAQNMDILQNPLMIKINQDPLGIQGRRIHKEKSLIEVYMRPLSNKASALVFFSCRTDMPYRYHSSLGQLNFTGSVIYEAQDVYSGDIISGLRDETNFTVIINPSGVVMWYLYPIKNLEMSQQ

T2: α-NAGA mutant (Homo sapiens, UniProt P17050, A191L/S188E)
T2 sequence (P17050 with tags, fused parts or gaps S188E/A191L): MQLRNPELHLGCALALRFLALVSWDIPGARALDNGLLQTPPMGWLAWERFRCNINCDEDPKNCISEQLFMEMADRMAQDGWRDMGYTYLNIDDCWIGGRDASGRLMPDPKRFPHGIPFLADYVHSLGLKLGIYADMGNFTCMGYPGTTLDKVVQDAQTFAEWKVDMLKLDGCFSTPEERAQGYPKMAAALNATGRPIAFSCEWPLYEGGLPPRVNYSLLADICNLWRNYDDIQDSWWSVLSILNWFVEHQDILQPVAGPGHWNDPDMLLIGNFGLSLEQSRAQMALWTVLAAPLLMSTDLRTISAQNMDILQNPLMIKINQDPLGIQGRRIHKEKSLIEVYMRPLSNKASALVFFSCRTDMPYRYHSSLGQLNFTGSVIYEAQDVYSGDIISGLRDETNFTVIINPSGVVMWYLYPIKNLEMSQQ


Legend:
[1] = molecular target: T1, α-NAGA mutant (SEQ ID NO:8); test: Screening of inhibitor (1): remaining enzyme activity of α-NAGA mutant with 4-methylumbelliferyl α-D-galactopyranoside; type: biochemical; details: 400 μM compound, pH 4.6, 37° C., 30 minutes
Procedure: The screening of inhibitor was carried out as follows: An inhibitor candidate compound dissolved in purified water or DMSO was added to 20 ng of an α-NAGA mutant (SEQ ID NO:8) and 4 mM 4-methylumbelliferylα-D-galactopyranoside dissolved in 0.1 M phosphate-citrate buffer (pH 4.6) such that a concentration of the inhibitor candidate compound became 0.8, 1, or 400 μM, and the mixture thus obtained was caused to react at 37° C. for 30 minutes (the total amount was 50 μl). After the reaction, 950 μl of 0.2 M glycine buffer (pH 10.7) was added to stop the reaction. Then, released 4-methylumbelliferone was measured at an excitation wavelength of 355 nm and at a fluorescence wavelength of 460 nm with use of Wallac 1420 ARVO MX Multilabel Counter. Remaining enzyme activity was calculated based on the assumption that an enzyme activity value obtained in a case where purified water or DMSO is added instead of the inhibitor candidate compound is 100%.

[2] = molecular target: T2, α-NAGA mutant; test: Calculation of inhibition constant Ki (Lineweaver-Burk plot); type: biochemical; details: substrate 1-8 mM; DGJ 100-400 nM, GBS 200-800 nM; pH 4.6; FIG. 2
Procedure: Enzymatic analysis was carried out by using, as a reaction liquid, 50 ng of an α-NAGA mutant and 0.1 M phosphate-citrate buffer (pH 4.6) in which a 4-methylumbelliferylα-D-galactopyranoside substrate was dissolved at any of concentrations (1, 2, 4, 6, and 8 mM) (the total amount was 50 μl). In measuring inhibitory activity, reaction was carried out with a reaction liquid which contained DGJ at a concentration of 100, 200, or 400 nM or GBS at a concentration of 200, 400, or 800 nM. After the reaction was carried out at 37° C. for 10 minutes, 950 μl of 0.2 M glycine buffer (pH 10.7) was added to stop the reaction. Then, released 4-methylumbelliferone was measured at an excitation wavelength of 355 nm and at a fluorescence wavelength of 460 nm with use of Wallac 1420 ARVO MX Multilabel Counter. From these values, a Lineweaver-Burk plot was prepared and an inhibition constant Ki was calculated from slopes in the plot which correspond to respective concentrations of the inhibitor.

[3] = molecular target: T2, α-NAGA mutant; test: Screening of inhibitor (2): inhibition of enzyme activity of α-NAGA mutant; type: biochemical; details: 0.1, 1, or 10 μM compound, pH 4.6, 37° C., 30 minutes; FIG. 1
Procedure: The second screening was carried out as follows: DGJ, GBS, N-C-DGJ, N-DGJ, or N-HE-DGJ dissolved in purified water or DMSO was added to 25 ng of an α-NAGA mutant and 4 mM 4-methylumbelliferylα-D-galactopyranoside dissolved in 0.1 M phosphate-citrate buffer (pH 4.6) such that a concentration of DGJ, GBS, N-C-DGJ, N-DGJ, or N-HE-DGJ became 0.1, 1, or 10 μM, and the mixture thus obtained was caused to react at 37° C. for 30 minutes (the total amount was 50 μl). After the reaction was finished, 950 μl of 0.2 M glycine buffer (pH 10.7) was added to stop the reaction. Then, released 4-methylumbelliferone was measured at an excitation wavelength of 355 nm and at a fluorescence wavelength of 460 nm with use of Wallac 1420 ARVO MX Multilabel Counter. Remaining enzyme activity was calculated based on the assumption that an enzyme activity value obtained in a case where purified water or DMSO is added instead of the inhibitor candidate compound is 100%. FIG. 1 is a view illustrating inhibition of enzyme activity of an α-NAGA mutant by DGJ.

[4] = test system: Fabry disease model mouse; details: Fabry disease model mouse to which the α-NAGA mutant has been administered; cited from earlier work

Molecule	inhibition effect on α-NAGA mutant (remaining enzyme activity) [1]	inhibition pattern from inhibition constant Ki [2]	inhibition of enzyme activity of an α-NAGA mutant (remaining enzyme activity) [3]	degradation of Gb3 and Lyso-Gb3 accumulated in organs [4]
O=S(=O)(O)C1NC(CO)C(O)C(O)C1O (stereo not shown) [GBS, galactostatin bisulfite]	the inhibition effect was seen	inhibitory activity by competitive inhibition	had the effect of inhibiting activity of an α-NAGA mutant	–
α-NAGA mutant: mutant human α-N-acetylgalactosaminidase, serine 188 to glutamic acid and alanine 191 to leucine, having α-galactosidase activity (SEQ ID NO:8 used) (protein) MQLRNPELHLGCALALRFLALVSWDIPGARALDNGLLQTPPMGWLAWERFRCNINCDEDPKNCISEQLFMEMADRMAQDGWRDMGYTYLNIDDCWIGGRDASGRLMPDPKRFPHGIPFLADYVHSLGLKLGIYADMGNFTCMGYPGTTLDKVVQDAQTFAEWKVDMLKLDGCFSTPEERAQGYPKMAAALNATGRPIAFSCEWPLYEGGLPPRVNYSLLADICNLWRNYDDIQDSWWSVLSILNWFVEHQDILQPVAGPGHWNDPDMLLIGNFGLSLEQSRAQMALWTVLAAPLLMSTDLRTISAQNMDILQNPLMIKINQDPLGIQGRRIHKEKSLIEVYMRPLSNKASALVFFSCRTDMPYRYHSSLGQLNFTGSVIYEAQDVYSGDIISGLRDETNFTVIINPSGVVMWYLYPIKNLEMSQQ	–	–	–	Gb3 and Lyso-Gb3 which are accumulated in organs are degraded
